Laboratory results taken from patent US9943614B2, “Cationic steroid antimicrobial diagnostic, detection, screening and imaging methods” (BRIGHAM YOUNG UNIVERSITY, priority 2008, dated 2018).

What was measured:
HIV = conditions: cited from earlier work
bacteria = conditions: cited from earlier work
S. aureus ATCC 25923 = assay: In vitro binding of 99mTc-labelled agents to viable S. aureus bacteria; parameters: species or system Staphylococcus aureus; conditions: 10 μg concentration, time not stated

Row | Structure (SMILES) | HIV infection of primary human CD4+ T cells (HIV) | in-vitro binding in published reports (bacteria) [%] | In vitro binding to bacteria (S. aureus ATCC 25923) [%]
1 | CCCCCCCCNCCC[C@@H](C)[C@H]1CC[C@H]2[C@@H]3[C@H](OCCCN)C[C@@H]4C[C@H](OCCCN)CC[C@]4(C)[C@H]3C[C@H](OCCCN)[C@]12C [CSA-13] | inhibit HIV infection |  | 
2 | O=C([O-])CN(CCN(CC(=O)[O-])CC(=O)[O-])CCN(CC(=O)[O-])CC(=O)[O-].[99Tc+4] [Compound 99mTc-DTPA] |  | > 8 | ~10
